# Reference: patent US10016439B2, “Fused imidazole compounds” (ONO PHARMACEUTICAL CO., LTD., priority 2014, dated 2018)
# Tests used:
# GABAA α5/β3/γ2 [1] = biological target: T1, GABAA α5/β3/γ2 (Homo sapiens (Human), UniProt P18507+P31644); assay: Functional assay (PatchXpress automated patch-clamp), α5 subtype; type: cell-based; details: % change of GABA EC20 response; compound 1 μM; HEK293 cells
# Description: (§1) GABAA α5/β3/γ2 HEK293 cell line was used throughout the functional assay in PatchXpress (Molecular Devices), the automated patch-clamp system. Cells stably expressing the appropriate GABAA subtype (α5/β3/γ2, α1/β3/γ2, α2/β3/γ2 or α3/β3/γ2) were dissociated from poly-D-lysine treated tissue culture flasks using a mixture of one part TrypLE (Invitrogen, cat #12604): one part Dulbecco's Phosphate Buffered Saline (Invitrogen, cat #14190). The dissociated cells were re-suspended in growth media (D-MEM/F-12 media (Invitrogen, cat #11320) supplemented with 10% (v/v) Foetal Bovine Serum (Invitrogen, cat #10082) and 1% (v/v) non-essential amino acids (Invitrogen, cat #11140)) and allowed to recover for one hour at 37° C. in a humidified incubator with 5% CO2. At the end of the recovery period cells were centrifuged at 1,000 rpm for two minutes and the resulting pellet re-suspended in external solution (in mM; 137 NaCl, 4 KCl, 10 HEPES, 1.8 CaCl2, 1 MgCl2, 10 glucose, pH set to 7.35 with NaOH). Cells were counted and diluted to 2.5×10^6/ml in external solution. The patch-clamp assay protocol involved determination of current amplitude with control applications of GABA EC20 containing concentration-matched DMSO (0.3% v/v), then pre-incubation of the test compound for one minute prior to the addition of the same compound diluted with the GABA EC20. Compound and/or GABA was applied for five seconds, with two minute wash periods between applications. No wash period was present at the end of the compound pre-application stage. The internal solution comprised (in mM) 90 KCl, 50 KF, 11 EGTA, 10 HEPES, 1 MgCl2, 2 Mg-ATP, the pH was set to 7.35 with KOH and the holding potential was −60 mV. Compounds were assayed at a concentration of 1 μM.
# GABAA α1/β3/γ2 = GABAA α1/β3/γ2 (Homo sapiens (Human), UniProt P14867+P18507); assay: Functional assay (PatchXpress automated patch-clamp), α1 subtype; type: cell-based; details: % change of GABA EC20 response; compound 1 μM; HEK293 cells
# Chain of GABAA α1/β3/γ2 (P14867 28-456): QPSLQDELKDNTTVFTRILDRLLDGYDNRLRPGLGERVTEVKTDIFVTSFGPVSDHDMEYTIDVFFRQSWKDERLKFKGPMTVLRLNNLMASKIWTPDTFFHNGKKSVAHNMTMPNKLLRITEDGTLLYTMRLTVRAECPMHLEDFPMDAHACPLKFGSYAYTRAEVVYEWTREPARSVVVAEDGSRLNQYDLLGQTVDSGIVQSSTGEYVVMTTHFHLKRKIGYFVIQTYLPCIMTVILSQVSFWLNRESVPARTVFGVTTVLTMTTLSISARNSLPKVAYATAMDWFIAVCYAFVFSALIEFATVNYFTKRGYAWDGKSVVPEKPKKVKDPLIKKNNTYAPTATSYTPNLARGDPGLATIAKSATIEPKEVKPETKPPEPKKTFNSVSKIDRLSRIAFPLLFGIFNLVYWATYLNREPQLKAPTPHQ
# Chain of GABAA α1/β3/γ2 (P28472 26-473 partner): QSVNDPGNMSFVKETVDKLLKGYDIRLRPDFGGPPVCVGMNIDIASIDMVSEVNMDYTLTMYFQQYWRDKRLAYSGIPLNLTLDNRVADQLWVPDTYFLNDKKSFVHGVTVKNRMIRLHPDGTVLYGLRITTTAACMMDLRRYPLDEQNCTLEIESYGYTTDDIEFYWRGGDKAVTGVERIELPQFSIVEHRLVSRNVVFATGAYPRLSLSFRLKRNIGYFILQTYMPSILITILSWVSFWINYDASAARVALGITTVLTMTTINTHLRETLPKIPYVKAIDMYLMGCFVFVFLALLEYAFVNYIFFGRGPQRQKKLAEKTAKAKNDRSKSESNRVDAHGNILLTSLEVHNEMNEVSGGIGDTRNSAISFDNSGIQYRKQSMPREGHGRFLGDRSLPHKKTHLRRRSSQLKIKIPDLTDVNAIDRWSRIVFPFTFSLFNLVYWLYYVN
# Chain of GABAA α1/β3/γ2 (P18507 40-475): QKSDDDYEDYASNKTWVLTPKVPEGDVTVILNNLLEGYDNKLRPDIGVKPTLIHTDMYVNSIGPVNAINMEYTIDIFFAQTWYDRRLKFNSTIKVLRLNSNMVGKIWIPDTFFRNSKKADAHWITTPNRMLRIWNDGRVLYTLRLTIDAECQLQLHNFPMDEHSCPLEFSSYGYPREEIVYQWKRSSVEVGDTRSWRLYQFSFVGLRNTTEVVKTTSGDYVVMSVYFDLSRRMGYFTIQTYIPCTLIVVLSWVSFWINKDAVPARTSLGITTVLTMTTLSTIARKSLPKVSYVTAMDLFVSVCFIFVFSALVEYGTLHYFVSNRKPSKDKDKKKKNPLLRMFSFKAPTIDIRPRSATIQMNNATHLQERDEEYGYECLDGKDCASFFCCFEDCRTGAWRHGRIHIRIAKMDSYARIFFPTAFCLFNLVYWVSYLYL
# Description: as §1
# GABAA α5/β3/γ2 [2] = biological target: T1, GABAA α5/β3/γ2; assay: Binding assay (Scintillation Proximity Assay, [3H]-Ro15-1788); details: membranes of HEK293 cells expressing GABAA α5/β3/γ2
# Description: The GABAAα5/β3/γ2 protein used for the Scintillation Proximity Assay was derived from membranes produced from HEK293 GABAA α5/β3/γ2 expressing HEK293 cell line. HEK293 GABAA α5/β3/γ2 expressing HEK293 cell line was cultured, then harvested and centrifuged the cells. Membranes were produced by homogenization of the cell pellet with a tissue homogenizer. The resulting homogenate was centrifuged at 48,000 g for 30 minutes, re-suspended and washed twice with 10 mM potassium phosphate buffer, pH 7.4. Final resuspension of membranes took place in buffer containing 10 mM potassium phosphate and 100 mM KCl.
# For assay, test compound (50×) was added 0.5 μl per well to a white-walled clear-bottomed 384-well plate.
# Full signal controls were prepared by the addition of 0.5 μl of DMSO to the appropriate wells. Mixture of 10 μl of protein and 10 μl of PVT-WGA beads (0.2 mg/well) were added to the plate. Both protein and bead were diluted to the desired concentration with 10 mM potassium phosphate, pH 7.4, containing 100 mM KCl. The plate was pre-incubated for 30 minutes at room temperature with shaking before initiation of the reaction by the addition of radioligand. 5 μl of [^3H]-Ro15-1788 was added at a concentration of 30 nM (5×) and the plates sealed. The reaction mix was incubated at room temperature overnight with gentle agitation on a plate shaker. The final DMSO concentration for all phases of the screening was 2% (v/v). At the end of the overnight incubation, the plates were centrifuged for two minutes at 1,000 rpm prior to reading on a Perkin Elmer Microbeta.
# Concentration-response testing was performed in duplicate and the percent effect calculated for each replicate data point. The raw data was entered in Activity Base and the curves were fitted to the mean data using Excel and XL Fit, and shown as Ki.
# [3] = Hepatic microsomal stability; type: in vitro ADME; details: human microsomes 0.5 mg protein/mL, NADPH, 1 μM, 37° C.; compound remaining; time point not stated
# Description: Microsomal stability assays were performed using pooled hepatic microsomes from human. Test and control compounds (propranolol or dextromethorphan, midazolam), prepared in DMSO, were incubated at an initial concentration of 1 μM (0.25% DMSO final, n=2) with microsomes (0.5 mg protein/mL) at 37° C. in the presence of the cofactor, NADPH (1 mM). Aliquots were removed at 0, 5, 10, 20 and 40 minutes for termination of reactions and compound extraction with acetonitrile containing an analytical internal standard. Samples were centrifuged and the supernatant fractions analysed for parent compound by mass spectrometry (LC-MS/MS).
# (§2) The amount of compound remaining (expressed as %) was determined from the MS response in each sample relative to that in the T=0 samples (normalised for internal standard).
# Ln plots of the % remaining were used to determine the half-life for compound disappearance using the relationship: t½(min)=−0.693/λ where λ is the slope of the Ln % remaining vs time curve.
# [4] = Cryopreserved hepatocyte stability; type: in vitro ADME; details: human hepatocytes 0.5 million cells/mL, 1 μM, 37° C.; compound remaining; time point not stated
# Description: Hepatocyte stability assays were performed using pooled human cryopreserved hepatocytes. Test and control compounds (testosterone, midazolam, 4-methylumbelliferone), prepared in DMSO, were incubated at an initial concentration of 1 μM (0.25% DMSO final, n=2) with hepatocytes at cell densities of 0.5 million cells/mL for both species at 37° C. Aliquots were removed at 0, 10, 20, 45 and 90 minutes for termination of reactions and compound extraction with acetonitrile containing an analytical internal standard. Samples were centrifuged and the supernatant fractions analysed for parent compound by mass spectrometry (LC-MS/MS).
# as §2
# Ln plots of the % remaining were used to determine the half-life for compound disappearance using the relationship: t½(min)=−0.693/λ where λ is the slope of the Ln % remaining vs time curve. Hepatic Microsomal Stability: Half-life/Intrinsic Clearance Format
# T1 sequence (P31644 32-462): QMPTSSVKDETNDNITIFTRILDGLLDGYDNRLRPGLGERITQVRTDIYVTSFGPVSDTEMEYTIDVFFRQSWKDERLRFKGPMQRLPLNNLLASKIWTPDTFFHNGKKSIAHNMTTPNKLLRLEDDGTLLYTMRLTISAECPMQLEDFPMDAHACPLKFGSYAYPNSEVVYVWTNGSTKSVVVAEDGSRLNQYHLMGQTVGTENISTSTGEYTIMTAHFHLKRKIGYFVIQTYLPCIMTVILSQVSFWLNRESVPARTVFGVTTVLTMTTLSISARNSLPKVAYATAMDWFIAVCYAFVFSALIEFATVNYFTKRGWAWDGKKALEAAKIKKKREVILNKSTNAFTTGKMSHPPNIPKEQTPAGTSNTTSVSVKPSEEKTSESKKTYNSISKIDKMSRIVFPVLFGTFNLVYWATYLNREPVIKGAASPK
# T1 sequence (P28472 26-473 partner): as the sequence (P28472 26-473 partner) above
# T1 sequence (P18507 40-475): as the sequence (P18507 40-475) above
inhibition at 1 µM (GABAA α5/β3/γ2 [1]),inhibition at 1 µM (GABAA α1/β3/γ2),Ki (GABAA α5/β3/γ2 [2]),microsomal stability (%) [3],hepatocyte stability (%) [4],SMILES
46%,-5%,38.8 nM,,,"O=C1COc2cc(Nc3cc4c(cn3)ncn4CC3CC3)ccc2N1C1CC1 [Example 37, 4-Cyclopropyl-7-((1-(cyclopropylmethyl)-1H-imidazo[4,5-c]pyridin-6-yl)amino)-2H-benzo[b][1,4]oxazin-3(4H)-one]"
55.9%,0.2%,24 nM,,,"CN1C(=O)COc2cc(Nc3cnc4ncn(CC5CC5)c4n3)ccc21 [Example 42, 7-((1-(Cyclopropylmethyl)-1H-imidazo[4,5-b]pyrazin-6-yl)amino)-4-methyl-2H-benzo[b][1,4]oxazin-3(4H)-one]"
55.1%,8%,42 nM,,,"Cn1c(=O)oc2cc(Nc3cnc4ncn(CC5CC5)c4n3)ccc21 [Example 43, 6-((1-(Cyclopropylmethyl)-1H-imidazo[4,5-b]pyrazin-6-yl)amino)-3-methylbenzo[d]oxazol-2(3H)-one]"
42.4%,-0.9%,38 nM,,,"COCCN1C(=O)COc2cc(Nc3ncc4ncn(CC5CC5)c4n3)ccc21 [Example 46, 7-((9-(Cyclopropylmethyl)-9H-purin-2-yl)amino)-4-(2-methoxyethyl)-2H-benzo[b][1,4]oxazin-3(4H)-one]"
41.8%,7.5%,6.7 nM,,,"CN1C(=O)COc2cc(Nc3cc4c(cc3F)ncn4CC3CC(F)(F)C3)cnc21 [Example 52, 7-((1-((3,3-Difluorocyclobutyl)methyl)-5-fluoro-1H-benzo[d]imidazol-6-yl)amino)-4-methyl-2H-pyrido[3,2-b][1,4]oxazin-3(4H)-one]"
52.5%,-0.5%,4.1 nM,,,"CN1C(=O)COc2cc(Nc3cc4c(cc3F)ncn4CCC3CC3)cnc21 [Example 67, 7-((1-(2-Cyclopropylethyl)-5-fluoro-1H-benzo[d]imidazol-6-yl)amino)-4-methyl-2H-pyrido[3,2-b][1,4]oxazin-3(4H)-one]"
,,,76%,103%,"Cc1c(F)c(Nc2cc3c(cn2)N(C)C(=O)CO3)cc2c1ncn2CC1CC1 [Example 87, 7-((1-(Cyclopropylmethyl)-5-fluoro-4-methyl-1H-benzo[d]imidazol-6-yl)amino)-4-methyl-2H-pyrido[4,3-b][1,4]oxazin-3(4H)-one]"
,,,95%,81%,"Cc1c(F)c(Nc2ccc(-n3ccnc3)nc2)cc2c1ncn2CC1CC1 [Example 88, N-(6-(1H-Imidazol-1-yl)pyridin-3-yl)-1-(cyclopropylmethyl)-5-fluoro-4-methyl-1H-benzo[d]imidazol-6-amine]"
,,,89%,96%,"Fc1cc(Nc2cc3c(ncn3CC3CC3)c(F)c2F)ccc1-n1ccnc1 [Example 95, 1-(Cyclopropylmethyl)-4,5-difluoro-N-(3-fluoro-4-(1H-imidazol-1-yl)phenyl)-1H-benzo[d]imidazol-6-amine]"
44.4%,-0.3%,34.6 nM,,,"CN1C(=O)COc2ncc(Nc3ccc4ncn(CC5CC5)c4n3)cc21 [Example 111, 7-((3-(Cyclopropylmethyl)-3H-imidazo[4,5-b]pyridin-5-yl)amino)-1-methyl-1H-pyrido[2,3-b][1,4]oxazin-2(3H)-one]"
,,,94%,85%,"Cc1nc(Nc2cnc3c(c2)OCC(=O)N3C)cc2c1ncn2CC1CC1 [Example 120, 7-((1-(Cyclopropylmethyl)-4-methyl-1H-imidazo[4,5-c]pyridin-6-yl)amino)-4-methyl-2H-pyrido[3,2-b][1,4]oxazin-3(4H)-one]"
,,,72%,75%,"Cc1nc(Nc2ccc3c(n2)OCC(=O)N3C)cc2c1ncn2CC1CC1 [Example 124, 6-((1-(Cyclopropylmethyl)-4-methyl-1H-imidazo[4,5-c]pyridin-6-yl)amino)-1-methyl-1H-pyrido[2,3-b][1,4]oxazin-2(3H)-one]"
,,,77%,101%,"CN1C(=O)COc2nc(Nc3cc(C(F)(F)F)c4ncn(CC5CC5)c4n3)ccc21 [Example 151, 6-((3-(Cyclopropylmethyl)-7-(trifluoromethyl)-3H-imidazo[4,5-b]pyridin-5-yl)amino)-1-methyl-1H-pyrido[2,3-b][1,4]oxazin-2(3H)-one]"
46.7%,4.8%,6.4 nM,,,"Cc1cc(Nc2ccc3c(n2)OCC(=O)N3C)nc2c1ncn2CC1CC1 [Example 159, 6-((3-(Cyclopropylmethyl)-7-methyl-3H-imidazo[4,5-b]pyridin-5-yl)amino)-1-methyl-1H-pyrido[2,3-b][1,4]oxazin-2(3H)-one]"
